Measured values from patent US20250367162A1, “Additive for Food, Drink and Pharmaceutical Products to Improve Health and Well-Being” (RB2 Enterprises, LLC, priority 2021, published 2025).

Key:
stability / shelf-life = assay type: physicochemical
[1] = bioavailability (share of consumed substance entering the bloodstream); assay type: in vivo; settings: mixed with an effective amount of a hydrogenated substance such as Erythritol
Procedure: For use as an additive 50 that accomplishes the various objectives and which provides the aspects of the present invention, the present inventor solved several problems with regard to use of Dihydromyricetin 14a. One such problem is that Dihydromyricetin 14a, on its own, has a solubility of approximately 0.2 mg per ml of fluid, which is very low. Because the solubility of Dihydromyricetin 14a is so low, it cannot be effectively utilized as a medicine or supplement, despite the well known benefits of this flavonoid 14 for people (as well as certain animals). Another issue with Dihydromyricetin 14a is that, on its own, it has a bioavailability of approximately four percent, meaning that only about four percent of consumed Dihydromyricetin 14a enters a person's bloodstream and stays long enough to be biologically effective for product user 56. […] Mixing an effective amount of one or more solvents 60, such as a bicarbonate substance 60a or an alcohol solvent 60b, increases the solubility of Dihydromyricetin 14a from approximately 0.2 mg per ml of fluid to approximately 114 mg per ml of fluid.

[2] = on its own; share of consumed Dihydromyricetin that enters a person's bloodstream; cited from earlier work

In the case of `O=C1c2c(O)cc(O)cc2O[C@H](c2cc(O)c(O)c(O)c2)[C@H]1O` [Dihydromyricetin 14a, Dihydromyricetin], the “shelf-life of Dihydromyricetin” value (stability / shelf-life; mixed with an effective amount of Erythritol and/or other hydrogenated substances) is reported as “extends the Dihydromyricetin 14a shelf-life”, the stability (stability / shelf-life; on its own, light sensitivity and other shelf-life limitations) is reported as “poor stability” and the “bioavailability of Dihydromyricetin” value [1] is reported as “greatly improves the bioavailability”. The bioavailability [2] was “approximately four”.
